# Measured values: paper PMC8234864, “Early Effects of the Soluble Amyloid β25-35 Peptide in Rat Cortical Neurons: Modulation of Signal Transduction Mediated by Adenosine and Group I Metabotropic Glutamate Receptors” (International Journal of Molecular Sciences, 2021)
# Where no end group is shown, it is not given here.
# How the values were obtained:
# A1R = target: T1, A1R (Rattus norvegicus, UniProt P25099); assay: [3H]DPCPX radioligand binding in intact cortical neurons; conditions: for Total A1R density (Bmax) increase over control value: 25 µM; for A1R Bmax: [3H]DPCPX saturation binding
# T1 construct: endogenous in cells; host or cells: rat primary cortical neurons (intact)
# T1 sequence (P25099 1-326): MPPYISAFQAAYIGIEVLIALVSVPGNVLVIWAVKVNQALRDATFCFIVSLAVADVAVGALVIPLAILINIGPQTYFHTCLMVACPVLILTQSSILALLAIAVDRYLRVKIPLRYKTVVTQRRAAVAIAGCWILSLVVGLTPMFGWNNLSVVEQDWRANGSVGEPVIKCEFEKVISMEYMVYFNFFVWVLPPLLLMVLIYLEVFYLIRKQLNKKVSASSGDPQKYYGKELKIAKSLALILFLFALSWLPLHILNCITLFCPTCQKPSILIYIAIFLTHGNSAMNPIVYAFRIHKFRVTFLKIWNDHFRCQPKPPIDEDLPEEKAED
# Experimental: Concerning adenosine receptor assessment by radioligand binding, [^3H]DPCPX and [^3H]ZM241385 were employed as selective A1R and A2AR radioligands, as described previously, to determine A1R and A2AR density, respectively. Briefly, primary cortical neurons growth in 24-well plates were washed with serum-free DMEM and pre-incubated with 2 U/mL ADA at 37 °C for 30 min to remove endogenous adenosine. After incubation, the radioligands [^3H]DPCPX (1–20 nM) or [^3H] ZM241385 (1–20 nM) were added in the absence or the presence of CPA in a concentration 10^4 times higher than the radioligand, to obtain non-specific binding to A1R, or 5 mM theophylline, to obtain non-specific binding to A2AR. A specific adenosine uptake inhibitor (1 µM dipyridamole) was added to the reaction mixture to block adenosine receptor ligands’ binding to adenosine transporters. After incubation at 25 °C for 2 h in a final volume of 250 µL, cells were washed with 500 µL of ice-cold buffer and disrupted with 0.2% SDS. Well contents were then transferred to vials and a scintillation liquid mixture was added to measure radioactivity. Two wells from each plate were reserved for protein concentration measurement.
# adenylyl cyclase (AC) = assay: Adenylyl cyclase activity, basal and forskolin-stimulated; format: cell-based, rat
# Experimental: AC activity was determined as previously reported by Murphy with minor modifications. Briefly, control or treated cells were pre-incubated in serum-free DMEM buffered with 20 mM HEPES, pH 7.4, supplemented with 100 µM Ro 20-1724 and 2 U/mL ADA, for 10 min at 37 °C. AC activity was stimulated using specific ligands for 15 min at 37 °C in a final volume of 250 µL. The reaction was stopped by adding 500 µL 0.1 M HCl in absolute ethanol. Once centrifuged at 12,000× g for 10 min, supernatants were evaporated in speed-vac and resuspended in 150 µL assay buffer (50 mM Tris-HCl, 4 mM EDTA). Fifty microliters of the sample were used to determine cAMP accumulation using protein kinase A as a cAMP binding protein and [^3H]cAMP as radioligand. A cAMP standard curve (0–16 pmol) was prepared in the same buffer. Incubation was stopped by rapid filtration through Whatman GF/B filters.
# CREB gene expression = CREB gene expression by real-time PCR; format: cell-based, rat; conditions: 25 µM, 24 or 48 h
# Experimental: Total RNA was extracted using an ABI 6100 Nucleic Acid PrepStation according to the manufacturer’s protocol (Applied Biosystems Inc., Foster City, CA, USA). Total RNA from cells was isolated and stored at −80 °C. The quality of isolated RNA was estimated by the ratio A260/A280 and was in the range of 1.9–2.1. RNA integrity was evaluated by agarose gel electrophoresis according to MIQE guidelines using the “bleach gel” method. RNA concentrations were determined from the A260. One microgram of total RNA was reverse transcribed using Applied Biosystems High-Capacity cDNA Archive Kit.
# To assess relative gene expression in neurons, quantitative real-time RT-PCR analysis was performed with an Applied Biosystems Prism 7500 Fast Sequence Detection System using TaqMan® universal PCR master mix according to the manufacturer’s specifications. […] Levels of RNA expression were determined using the 7500 Fast System SDS software version 1.3.1 (Applied Biosystems) according to the 2^−ΔΔCt method. […] The results from three independent repeat assays, performed in different plates each using different cDNA’s from the cultures analyzed, were averaged to produce a single mean quantity value for each mRNA.
# [1] = neurons exposed to 25 µM for 24 h
# [2] = neurons exposed to 25 µM for 48 h
sequence,measurement,setting,value
GSNKGAIIGLM [Aβ25-35],Total A1R density (Bmax) increase over control value,A1R; 24 h,265%
same,Total A1R density (Bmax) increase over control value,A1R; 48 h,184%
same,Kd,A1R; [1],7.51 ± 2.35 nM
same,A1R Bmax,A1R; [1],545 ± 101 fmol/mg prot
same,Kd,A1R; [2],5.51 ± 1.33 nM
same,A1R Bmax,A1R; [2],423 ± 66 fmol/mg prot
same,basal or forskolin-stimulated AC activity vs control neurons,"adenylyl cyclase (AC); 25 µM, 24 h, 5 µM forskolin",No differences
same,basal AC activity,adenylyl cyclase (AC); [1],2.33 ± 0.55 pmol/mg/min
same,CREB gene expression,CREB gene expression,decrease
